21 compounds from ChEMBL document CHEMBL4130593, “Identification of an Indazole-Based Pharmacophore for the Inhibition of FGFR Kinases Using Fragment-Led de Novo Design” (ACS Med Chem Lett, 2017) can be followed below.

Usually IC50 stands for the concentration needed to halve the response being measured. For orientation: inhibition means the relative decrease from the control value, in per cent.

The target in assay [1] is T1, Fibroblast growth factor receptor 1 (Homo sapiens, UniProt P11362). As to the kind of experiment: Inhibition of recombinant human His-tagged FGFR1 cytoplasmic domain (308 to 731 residues) expressed in baculovirus expression system using Tyr 04 as substrate measured after 1 hr by Z'-LYTE assay.
In assay [2] the target is T1, Fibroblast growth factor receptor 1. As to the kind of experiment: Inhibition of recombinant human His-tagged FGFR1 cytoplasmic domain (308 to 731 residues) expressed in baculovirus expression system at 500 uM using Tyr 04 as substrate measured after 1 hr by Z'-LYTE assay relative to control.
The target is the same in assay [3]. As to the kind of experiment: Inhibition of recombinant human His-tagged FGFR1 cytoplasmic domain (308 to 731 residues) expressed in baculovirus expression system at 100 uM using Tyr 04 as substrate measured after 1 hr by Z'-LYTE assay relative to control.
In assay [4] the target is Fibroblast growth factor receptor 3 (Homo sapiens, UniProt P22607). As to the kind of experiment: Inhibition of recombinant human His-tagged FGFR3 cytoplasmic domain (399 to 806 residues) expressed in baculovirus expression system using Tyr 04 as substrate measured after 1 hr by Z'-LYTE assay.
Sequence of Fibroblast growth factor receptor 3 (P22607 whole entry, the tested form may be a part): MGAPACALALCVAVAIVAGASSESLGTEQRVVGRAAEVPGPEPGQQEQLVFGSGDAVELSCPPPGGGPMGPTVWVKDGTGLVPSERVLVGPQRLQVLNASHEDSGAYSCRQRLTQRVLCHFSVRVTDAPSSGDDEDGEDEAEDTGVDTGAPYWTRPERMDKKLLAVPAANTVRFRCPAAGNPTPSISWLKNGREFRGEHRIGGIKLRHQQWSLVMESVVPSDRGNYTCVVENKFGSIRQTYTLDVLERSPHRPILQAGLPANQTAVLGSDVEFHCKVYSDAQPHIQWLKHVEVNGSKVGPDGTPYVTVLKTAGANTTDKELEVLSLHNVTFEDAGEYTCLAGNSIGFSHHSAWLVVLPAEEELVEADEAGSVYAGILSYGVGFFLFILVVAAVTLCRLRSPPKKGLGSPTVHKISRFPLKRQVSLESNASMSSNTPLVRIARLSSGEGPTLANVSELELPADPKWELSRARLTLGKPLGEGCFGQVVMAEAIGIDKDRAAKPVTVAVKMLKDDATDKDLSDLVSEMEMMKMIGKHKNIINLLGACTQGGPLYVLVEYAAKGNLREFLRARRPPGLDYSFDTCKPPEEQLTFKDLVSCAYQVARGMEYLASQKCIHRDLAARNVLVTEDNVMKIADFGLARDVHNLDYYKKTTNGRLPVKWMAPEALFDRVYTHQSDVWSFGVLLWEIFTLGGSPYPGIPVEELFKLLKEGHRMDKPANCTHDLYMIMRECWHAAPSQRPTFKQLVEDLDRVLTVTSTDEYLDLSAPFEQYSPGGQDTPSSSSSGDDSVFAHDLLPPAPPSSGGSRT

T1 sequence (P11362 whole entry, the tested form may be a part): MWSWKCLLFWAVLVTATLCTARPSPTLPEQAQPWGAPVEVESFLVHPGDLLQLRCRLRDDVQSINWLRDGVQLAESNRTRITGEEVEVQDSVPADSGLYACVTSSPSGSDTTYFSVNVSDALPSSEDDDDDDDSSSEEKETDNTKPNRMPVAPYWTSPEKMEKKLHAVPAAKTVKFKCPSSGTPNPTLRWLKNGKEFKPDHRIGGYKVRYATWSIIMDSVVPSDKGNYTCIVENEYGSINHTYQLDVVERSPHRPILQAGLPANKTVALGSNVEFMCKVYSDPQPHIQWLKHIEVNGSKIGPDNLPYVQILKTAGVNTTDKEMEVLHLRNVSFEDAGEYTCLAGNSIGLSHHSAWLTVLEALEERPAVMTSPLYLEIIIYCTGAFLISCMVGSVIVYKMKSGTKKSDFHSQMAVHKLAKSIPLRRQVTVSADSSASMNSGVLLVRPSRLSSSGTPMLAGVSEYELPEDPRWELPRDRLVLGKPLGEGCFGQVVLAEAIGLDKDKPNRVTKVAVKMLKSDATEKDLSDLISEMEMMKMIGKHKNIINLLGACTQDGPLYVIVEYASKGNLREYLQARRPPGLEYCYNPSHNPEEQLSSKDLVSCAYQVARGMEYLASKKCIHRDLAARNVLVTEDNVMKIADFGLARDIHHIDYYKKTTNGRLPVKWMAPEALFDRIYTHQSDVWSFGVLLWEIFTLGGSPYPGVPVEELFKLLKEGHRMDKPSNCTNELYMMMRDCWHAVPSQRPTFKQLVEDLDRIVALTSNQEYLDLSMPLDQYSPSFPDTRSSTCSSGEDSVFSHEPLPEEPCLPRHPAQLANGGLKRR

For `Cc1cc(O)ccc1-c1ccc2cn[nH]c2c1`, the half-maximal inhibitory concentration (IC50) in assay [1] was found to be 6.4 µM.

For the compound `c1cncc(-c2ccc3cn[nH]c3c2)c1`, in assay [2], the inhibition at 500 µM is 66%. Moreover, in assay [1], the IC50 worked out at 90 µM.

Turning to `Clc1cccc(-c2ccc3cn[nH]c3c2)c1`, in assay [3], the inhibition at 100 µM was 32%.

As for `c1ccc(-c2ccc3cc[nH]c3c2)cc1`, the inhibition at 500 µM in assay [2] came out at 1%.

With `c1coc(-c2ccc3cn[nH]c3c2)c1`, the inhibition at 100 µM in assay [3] is 29%.

In the case of `Oc1ccc(-c2ccc3cn[nH]c3c2)c(F)c1`, the 50% inhibitory concentration (IC50) was greater than 100 µM in assay [4] and 9.9 µM in assay [1].

In the case of `CCOc1cc(F)cc(-c2ccc3cn[nH]c3c2)c1`, the figures for the 50% inhibitory concentration (IC50) in assay [4] and in assay [1] were greater than 100 µM and 83 µM, respectively.

For `Clc1cncc(-c2ccc3cc[nH]c3c2)c1`, the inhibition at 500 µM in assay [2] turned out to be 21%. Also, the half-inhibitory concentration (IC50) in assay [1] was greater than 500 µM.

As to `Clc1cncc(-c2ccc3cn[nH]c3c2)c1`, the inhibition at 500 µM in assay [2] was 73%. In addition, in assay [1], the IC50 is 36 µM.

Turning to `Cc1csc(-c2ccc3cn[nH]c3c2)c1`, in assay [3], the inhibition at 100 µM was 19%.

`Clc1ccc(-c2ccc3cn[nH]c3c2)cc1`: in assay [3], the inhibition at 100 µM was 12%.

On to `Fc1cccc(-c2ccc3cn[nH]c3c2)c1`, for which the inhibition at 100 µM in assay [3] was determined as 19%.

Take `Oc1ccc(-c2ccc3cn[nH]c3c2)cc1F`: the IC50 in assay [1] came to 14 µM.

On to `c1cc(-c2ccc3cn[nH]c3c2)cs1`, for which the inhibition at 100 µM in assay [3] was determined as 20%.

On to `c1ccc(-c2ccc3cn[nH]c3c2)cc1`, for which the inhibition at 500 µM in assay [2] amounted to 53%. In addition, the IC50 in assay [1] was 77 µM.

In the case of `CCOc1cccc(-c2ccc3cn[nH]c3c2)c1F`, the half-inhibitory concentration (IC50) was greater than 100 µM in assay [4] and 9.7 µM in assay [1].

On to `Cc1cc(-c2ccc3cn[nH]c3c2)ccc1O`, for which the IC50 in assay [1] came out at 8.8 µM.

For `CCOc1ccc(F)c(-c2ccc3cn[nH]c3c2)c1F`, the IC50 in assay [4] and in assay [1] was greater than 100 µM throughout.

For `FC(F)(F)c1cc(-c2ccc3cn[nH]c3c2)cc(C(F)(F)F)c1`, in assay [3], the inhibition at 100 µM is -5%.

On to `COc1ccc(-c2ccc3cn[nH]c3c2)cc1`, for which the inhibition at 100 µM in assay [3] was 11%.

`c1cncc(-c2ccc3cc[nH]c3c2)c1`: the inhibition at 500 µM in assay [2] is 16%.
